Biological target: human α-thrombin (Homo sapiens, UniProt P00734)
Assay: Sub-library screen for active and permeable cyclic peptides (PAMPA plus thrombin inhibition)
Assay type: biochemical
Conditions: crude, slopes normalized to DMSO; for Residual thrombin activity: Top sample: PAMPA acceptor well after 14 h, 5 μM donor; for Residual thrombin activity: Equilibrated sample: donor sample diluted to theoretical equilibrium (1 μM in assay)
In short: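 Acylated cyclic peptides at 5 μM in PBS pH 7.4 with 5% DMSO were run through PAMPA for 14 h at room temperature. Acceptor wells and a diluted donor sample at 3 μM, representing maximum permeability, were preincubated 10 min with human α-thrombin (6 nM stock). Z-Gly-Gly-Arg-AMC (150 μM stock) fluorescence was then read for 30 min at 25 °C, and inhibition was taken against a no-peptide control.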

Compound	Residual thrombin activity: Top sample	Residual thrombin activity: Equilibrated sample
O=C1C[C@H]2CCCN2C(=O)[C@H](Cc2ccc(C(F)(F)F)cc2)NC(=O)[C@@H](NC(=O)c2ccc(Cl)s2)CSCc2ccccc2CSCCN1 [C1-X36-L6]	91.2	94.8
O=C1C[C@H]2CCCN2C(=O)[C@H](Cc2ccc(C(F)(F)F)cc2)NC(=O)[C@@H](NC(=O)c2ccc(Cl)s2)CCCSCc2ccccc2CSCCN1 [C3-X36-L6]	96.6	97.7
N#Cc1ccc(C[C@@H]2NC(=O)[C@@H](NC(=O)c3ccc(Cl)s3)CCSCCS(=O)(=O)CCSCCNC(=O)C[C@H]3CCCN3C2=O)cc1 [C2-X35-L2]	102.9	100.1
O=C1C[C@H]2CCCN2C(=O)[C@H](Cc2ccc(C(F)(F)F)cc2)NC(=O)[C@@H](NC(=O)c2ccc(Cl)s2)CCSCc2ccccc2CSCCN1 [C2-X36-L6]	96.8	97.9
COc1ccc(C[C@@H]2NC(=O)[C@@H](NC(=O)c3ccc(Cl)s3)CCSCc3cccc(n3)CSCCNC(=O)C[C@H]3CCCN3C2=O)cc1 [C2-X33-L1]	95.4	94.0
Cc1cccc(C[C@@H]2NC(=O)[C@@H](NC(=O)c3ccc(Cl)s3)CCCSCCS(=O)(=O)CCSCCNC(=O)C[C@H]3CCCN3C2=O)c1 [C3-X37-L2]	92.4	51.6
O=C1CSCCNC(=O)C[C@H]2CCCN2C(=O)[C@H](Cc2ccc(Cl)cc2)NC(=O)[C@@H](NC(=O)c2ccc(Cl)s2)CSC1 [C1-X34-L7]	100.2	98.8
Cc1cccc(C[C@@H]2NC(=O)[C@@H](NC(=O)c3ccc(Cl)s3)CCSCc3ccccc3CSCCNC(=O)C[C@H]3CCCN3C2=O)c1 [C2-X37-L6]	97.5	96.9
CN1C(=O)[C@@H](NC(=O)c2ccc(Cl)s2)CSCc2cccc(c2)CSCCNC(=O)C[C@H]2CCCN2C(=O)[C@@H]1Cc1ccccc1 [C1-X32-L5]	98.6	96.6
O=C1CSCCNC(=O)C[C@H]2CCCN2C(=O)[C@H](Cc2ccccc2)NC(=O)[C@@H](NC(=O)c2ccc(Cl)s2)CSC1 [C1-X5-L7]	93.6	82.8
O=C1C[C@H]2CCCN2C(=O)[C@H](Cc2ccc(C(F)(F)F)cc2)NC(=O)[C@@H](NC(=O)c2ccc(Cl)s2)CCSC/C=C/CSCCN1 [C2-X36-L4]	103.3	101.3
Cc1cccc(C[C@@H]2NC(=O)[C@@H](NC(=O)c3ccc(Cl)s3)CCSCCS(=O)(=O)CCSCCNC(=O)C[C@H]3CCCN3C2=O)c1 [C2-X37-L2]	97.6	73.7
N#Cc1ccc(C[C@@H]2NC(=O)[C@@H](NC(=O)c3ccc(Cl)s3)CCCSCc3cccc(c3)CSCCNC(=O)C[C@H]3CCCN3C2=O)cc1 [C3-X35-L5]	107.1	100.9
O=C1C[C@H]2CCCN2C(=O)[C@H](Cc2ccccc2)NC(=O)[C@@H](NC(=O)c2ccc(Cl)s2)CCCSCCS(=O)(=O)CCSCCN1 [C3-X5-L2]	81.8	27.6
COc1ccc(C[C@@H]2NC(=O)[C@@H](NC(=O)c3ccc(Cl)s3)CSCc3ccccc3CSCCNC(=O)C[C@H]3CCCN3C2=O)cc1 [C1-X33-L6]	89.9	95.4
N#Cc1ccc(C[C@@H]2NC(=O)[C@@H](NC(=O)c3ccc(Cl)s3)CCCSCC(=O)CSCCNC(=O)C[C@H]3CCCN3C2=O)cc1 [C3-X35-L7]	106.1	102.1
CN1C(=O)[C@@H](NC(=O)c2ccc(Cl)s2)CCCSCc2ccccc2CSCCNC(=O)C[C@H]2CCCN2C(=O)[C@@H]1Cc1ccccc1 [C3-X32-L6]	99.5	96.0
O=C1C[C@H]2CCCN2C(=O)[C@H](Cc2ccc(Cl)cc2)NC(=O)[C@@H](NC(=O)c2ccc(Cl)s2)CCSCc2ccccc2CSCCN1 [C2-X34-L6]	93.6	95.7
O=C1C[C@H]2CCCN2C(=O)[C@@H](Cc2ccccc2)NC(=O)[C@@H](NC(=O)c2ccc(Cl)s2)CCSCc2ccccc2CSCCN1 [C2-X31-L6]	92.4	88.8

Compound	Residual thrombin activity: Top sample	Residual thrombin activity: Equilibrated sample
CN1C(=O)[C@@H](NC(=O)c2ccc(Cl)s2)CCSCCS(=O)(=O)CCSCCNC(=O)C[C@H]2CCCN2C(=O)[C@@H]1Cc1ccccc1 [C2-X32-L2]	93.7	100.8
O=C1C[C@H]2CCCN2C(=O)[C@@H](Cc2ccccc2)NC(=O)[C@@H](NC(=O)c2ccc(Cl)s2)CCCSC/C=C/CSCCN1 [C3-X31-L4]	100.8	98.3
O=C1C[C@H]2CCCN2C(=O)[C@@H](Cc2ccccc2)NC(=O)[C@@H](NC(=O)c2ccc(Cl)s2)CCSCc2cccc(c2)CSCCN1 [C2-X31-L5]	105.0	96.6
O=C1C[C@H]2CCCN2C(=O)[C@H](Cc2ccccc2)NC(=O)[C@@H](NC(=O)c2ccc(Cl)s2)CCCSCc2cccc(c2)CSCCN1 [C3-X5-L5]	84.2	60.5
O=C1CSCCNC(=O)C[C@H]2CCCN2C(=O)[C@H](Cc2ccc(C(F)(F)F)cc2)NC(=O)[C@@H](NC(=O)c2ccc(Cl)s2)CSC1 [C1-X36-L7]	100.3	99.5
COc1ccc(C[C@@H]2NC(=O)[C@@H](NC(=O)c3ccc(Cl)s3)CCCSCCS(=O)(=O)CCSCCNC(=O)C[C@H]3CCCN3C2=O)cc1 [C3-X33-L2]	105.7	97.1
CN1C(=O)[C@@H](NC(=O)c2ccc(Cl)s2)CCCSCC(=O)CSCCNC(=O)C[C@H]2CCCN2C(=O)[C@@H]1Cc1ccccc1 [C3-X32-L7]	102.9	98.1
O=C1C[C@H]2CCCN2C(=O)[C@@H](Cc2ccccc2)NC(=O)[C@@H](NC(=O)c2ccc(Cl)s2)CSCc2ccc(cc2)CSCCN1 [C1-X31-L3]	95.4	95.0
CN1C(=O)[C@@H](NC(=O)c2ccc(Cl)s2)CCSCc2cccc(n2)CSCCNC(=O)C[C@H]2CCCN2C(=O)[C@@H]1Cc1ccccc1 [C2-X32-L1]	92.7	101.7
O=C1CSCCNC(=O)C[C@H]2CCCN2C(=O)[C@H](Cc2ccc(Cl)cc2)NC(=O)[C@@H](NC(=O)c2ccc(Cl)s2)CCSC1 [C2-X34-L7]	104.6	101.4
O=C1C[C@H]2CCCN2C(=O)[C@H](Cc2ccccc2)NC(=O)[C@@H](NC(=O)c2ccc(Cl)s2)CCCSCc2cccc(n2)CSCCN1 [C3-X5-L1]	64.7	75.1
O=C1C[C@H]2CCCN2C(=O)[C@H](Cc2ccc(C(F)(F)F)cc2)NC(=O)[C@@H](NC(=O)c2ccc(Cl)s2)CCSCc2cccc(c2)CSCCN1 [C2-X36-L5]	106.2	106.1
COc1ccc(C[C@@H]2NC(=O)[C@@H](NC(=O)c3ccc(Cl)s3)CSCCS(=O)(=O)CCSCCNC(=O)C[C@H]3CCCN3C2=O)cc1 [C1-X33-L2]	98.0	99.8
COc1ccc(C[C@@H]2NC(=O)[C@@H](NC(=O)c3ccc(Cl)s3)CCSC/C=C/CSCCNC(=O)C[C@H]3CCCN3C2=O)cc1 [C2-X33-L4]	100.6	93.7
O=C1C[C@H]2CCCN2C(=O)[C@H](Cc2ccc(Cl)cc2)NC(=O)[C@@H](NC(=O)c2ccc(Cl)s2)CCCSCCS(=O)(=O)CCSCCN1 [C3-X34-L2]	98.4	94.5
COc1ccc(C[C@@H]2NC(=O)[C@@H](NC(=O)c3ccc(Cl)s3)CSC/C=C/CSCCNC(=O)C[C@H]3CCCN3C2=O)cc1 [C1-X33-L4]	95.0	98.0
O=C1CSCCNC(=O)C[C@H]2CCCN2C(=O)[C@H](Cc2ccc(C(F)(F)F)cc2)NC(=O)[C@@H](NC(=O)c2ccc(Cl)s2)CCSC1 [C2-X36-L7]	102.7	104.5
N#Cc1ccc(C[C@@H]2NC(=O)[C@@H](NC(=O)c3ccc(Cl)s3)CSC/C=C/CSCCNC(=O)C[C@H]3CCCN3C2=O)cc1 [C1-X35-L4]	93.4	96.9
